The source of these data is US20060206946A1, “Method of disrupting heme transport in nematodes and of modelling and evaluating eukaryotic heme transport” (priority 2005, published 2006).

This data set has as its system C. elegans wild-type N2 strain. Nature of the data set: Worm culture and growth assay in axenic CeHR/mCeHR liquid medium. On the set-up: key to Growth 1.6 μM hemin / Growth 0.5 μM GaPP: + = wild type equivalent In growth; ND: No growth. The data set is classed as in vivo. How it is done:
(D) Biphasic response of C. elegans cultured in the presence of increasing amounts of hemin chloride (μM). Equal numbers of synchronized L1 larvae were grown in 24-well plates in mCeHR medium for 9 days and quantified (worms/μl) by microscopy. Each data point represents the mean±SD from three separate experiments performed in triplicate.
(A) Aerobic growth of C. elegans in mCeFIR medium with 20 μM hemin supplemented with either gallium protoporphyrin IX (GaPP) or gallium salts. Synchronized L1 larvae were grown for 9 days in 24-well plates and quantified (worms/μl) by microscopy. Each data point represents the mean from a single experiment, and each experiment was performed in triplicate. Inset depicts the GaPP analysis at lower concentrations for clarity.
(B) Effect of heme on the cytotoxicity of GaPP. Synchronized L1 larvae were inoculated in 24-well plates containing mCeHR medium with either 0, 2, 4, or 6 μM GaPP and increasing hemin (μM). The number of worms per μl was measured on day 9 and the data are presented as mean±SD.
FIG. 9 depicts worm utilization of heme-iron under iron deprivation. Equal numbers of synchronized L1 larvae were grown in the presence of 4, 20, and 100 μM hemin, either in basal mCeHR medium (set 1), or basal medium lacking exogenous iron (set 2), or as set 2 with 1 μM of the iron chelator ferrozine (set 3), or as set 3 with 486 μM ferrous ammonium sulfate (set 4). These values of ferrozine and iron were empirically determined by performing dose-response experiments and analyzing worm growth. The number of worms per μl was measured on day 9 and the data presented as mean±SD performed in triplicate. P<0.001 between sets 1 and 3.
To qualitatively and quantitatively determine the heme requirement of C. elegans, we assessed growth at various heme concentrations. Equal numbers of L1 larvae were inoculated in CeHR medium with either no cytochrome c and hemin, or with cytochrome c and increasing amounts of hemin (FIG. 4A). The effect of hemin became apparent within 48 hours and by 9 days, the heme-deplete worms were severely growth retarded at the L1/L2 stages. […] However, this stimulatory effect of heme was toxic to worms grown at heme concentrations >750 μM. To quantitatively assess the effect of heme on worms, we counted the number of live worms grown under different concentration of heme using DIC microscopy. […] On the basis of this association between heme and the growth and reproduction of C. elegans, we conclude that the biphasic nature of heme is likely due to the need for heme under heme-deprived conditions to perform essential metabolic functions, and the lethality of heme at high concentrations can be attributed to its cytotoxic activity.
Worm Culture and Growth Assays. Free-living worms were cultured in CeHR axenic liquid medium (Dr. Eric Clegg, Personal Communication). […] CeHR medium was modified (henceforth called mCeHR) to eliminate all sources of exogenously added heme; basal growth medium comprised 20 μM hemin chloride (Frontier Scientific, Logan, Utah) and 150 μM of ferrous ammonium sulfate (Sigma Chemicals). Worm strains were grown in mCeHR medium under aerobic conditions in tissue culture flasks at 20° C. ˜3.7×10^6 worms were routinely obtained after 3.5 to 4 days in a T75 flask with 30 ml basal medium from an initial inoculum of −1.5×10^5 worms. For initial culturing of worms in axenic media, three generations of worms were sequentially bleached (1.1% bleach/0.55 M NaOH) to eliminate any contaminating bacterial carryover from agar plates. In all dose-response experiments, worms were growth synchronized by treating the gravid hermaphrodite worms with bleach to dissolve adult worms. The eggs, resistant to bleach, were liberated from the carcasses and extensively washed with M9 buffer followed by overnight hatching in M9 buffer to synchronize growth. By harvesting at appropriate time intervals, synchronous larval stages and adult staged worms were collected for experimental manipulations. […]

hemin chloride: the “growth delay compared to worms grown at 20 μM hemin” value (4 and 500 μM hemin) is ~24 h. For the same substance, the “effect on growth under iron deprivation” value (20 and 100 μM hemin, with ferrozine, P<0.001) is “attenuated the growth retarding effects of iron deprivation”. Under “CeHR medium”, the “heme concentrations toxic to worms” value was > 750 µM. Besides, the “hemin concentration at which maximum growth was achieved” value (CeHR medium with cytochrome c, L1 larvae inoculum) is 10 µM. Moreover, where the note is “Control Wild-type (N2)”, the “Growth 1.6 μM hemin” value is “+”. Also, where the note is “Control Wild-type (N2), 20 μM hemin”, the “Generation time (Days) 20 μM” value worked out at 3.5 days. Besides, the “brood size 20 μM” value (Control Wild-type (N2), 20 μM hemin, average in 24 well plates) amounted to 62.3. In addition, where the note is “Control Wild-type (N2), 800 μM hemin”, the “Generation time (Days) 800 μM” value is >16 days. In addition, the “sensitivity to heme in liquid medium versus heme plates” value (in vivo) was 10 times. Moreover, the “hemin amount resulting in growth arrest at the L3 stage” value (mCeHR medium) is ≥ 800 µM. Further, the “optimum concentration of hemin for growth” value (mCeHR medium, 9 days) is 20 µM.
